This is an account of results in patent publication US20240108745A1, “BIOACTIVE SUBSTANCE CONJUGATE, PREPARATION METHOD THEREFOR AND USE THEREOF” (MEDILINK THERAPEUTICS (SUZHOU) CO., LTD., priority 2021, published 2024).

Molecules are shown by their SMILES.

One assay concerns HT29 cells. As to the kind of experiment: Assay I of bioactive molecules on cell viability in vitro (CCK8). The note with it: Homo sapiens, HT-29, CCK8; read-out: EC50(nM), killing of HT29 cells. In kind it is cell-based. The procedure:
(§1) Tumor cells were first cultured; the bioactive molecules of the present disclosure were co-cultured with tumor cells, and then CCK8 reagent (Dojindo Laboratories (Shanghai), Cat: CK04, Lot: JJ744) was added, and the activity of dehydrogenase in mitochondria was detected by reading (detection wavelength 450 nm) on a microplate reader (manufacturer: Molecular Devices, model: SpectraMax M2), to evaluate the inhibitory effect of bioactive molecules on cell proliferation.
(§2) In vitro cell viability assay method: bioactive molecules (12 concentration gradients) were diluted with corresponding assay medium (containing 2% FBS). The tumor cells were digested by conventional methods using trypsin, and cells in tube were collected and counted, then resuspended in the corresponding assay media (containing 2% FBS). The diluted bioactive molecules were added to a 96-well plate, followed by the cells. Then, 20 μL of CCK8 reagent was added to each well, and the reaction was carried out for 4 h, then the plate was read on a microplate reader (detection wavelength was 450 nm). The experimental results are shown in Tables 6.1, 6.2, 6.3, 6.4, and 6.5.

A further assay concerns NCl-H358 cells. The description is as above. In kind it is cell-based. Particulars: Homo sapiens, read-out: EC50(nM), killing of NCl-H358 cells. Here is the method: as §1, §2

As to `CC[C@@]1(O)C(=O)OCc2c1cc1n(c2=O)Cc2c-1nc1cc3c(cc1c2-c1ccc(N)cc1)OCO3` [Example A1.4, (S)-14-(4-aminophenyl)-7-ethyl-7-hydroxy-10,13-dihydro-11H-[1,3]dioxolo[4,5-g]pyrano[3′,4′:6,7]indolizino[1,2-b]quinolin-8,11(7H)-dione], the values for the EC50 in the assay on HT29 cells and in the assay on NCl-H358 cells were 29.4 nM and 29.9 nM, respectively. The corresponding values for `CC[C@@]1(O)C(=O)OCc2c1cc1n(c2=O)Cc2c-1nc1cc3c(cc1c2CCN(C(=O)CO)C(C)C)OCO3` [Example A1.8, (S)—N-(2-(7-ethyl-7-hydroxy-8,11-dioxo-7,8,11,13-tetrahydro-10H-[1,3]dioxolo[4,5-g]pyrano[3′,4′:6,7]indolizino[1,2-b]quinolin-14-yl)ethyl)-2-hydroxy-N-isopropylacetamide] are 367 nM and 296 nM. For the compound `CC[C@@]1(O)C(=O)OCc2c1cc1n(c2=O)Cc2c-1nc1cc3c(cc1c2CCNC(C)C)OCO3` [Example A1.8D, (S) 7-ethyl-7-hydroxy-14-(2-(isopropylamine)ethyl)-10,13-dihydro-11H-[1,3]dioxolo[4,5-g]pyrano[3′,4′:6,7]indolizino[1,2-b]quinolin-8,11(7H)-dione], the EC50 with NCl-H358 cells is 7.92 nM. Consider `CC[C@@]1(O)C(=O)OCc2c1cc1n(c2=O)Cc2c-1nc1cc(F)c(C)cc1c2CCCO` [Example A1.10, (S)-4-ethyl-8-fluoro-4-hydroxy-11-(3-hydroxypropyl)-9-methyl-1,12-dihydro-14H-pyrano[3′,4′:6,7]indolizino[1,2-b]quinolin-3,14(4H)-dione], for which the results for the EC50 in the assay with HT29 cells and in the assay with NCl-H358 cells were 5.96 nM and 8.11 nM, respectively. The matching figures for `CC[C@@]1(O)C(=O)OCc2c1cc1n(c2=O)Cc2c-1nc1cc(F)c(C)cc1c2CCCN` [Example A1.11, (S)-4-ethyl-8-fluoro-4-hydroxy-11-(3-aminopropyl)-9-methyl-1,12-dihydro-14H-pyrano[3′,4′:6,7]indolizino[1,2-b]quinolin-3,14(4H)-dione]: 284 nM and 203 nM.

Consider `CC[C@@]1(O)C(=O)OCc2c1cc1n(c2=O)Cc2c-1nc1cc3c(cc1c2/C=C/CN)OCO3` [Example A1.12, (S,E)-14-(3-amino-1-propylen-1-yl)-7-ethyl-7-hydroxy-10,13-dihydro-11H-[1,3]dioxolo[4,5-g]pyrano[3′,4′:6,7]indolizino[1,2-b]quinolin-8,11(7H)-dione], for which the EC50 with HT29 cells was determined as 212 nM; in the assay with NCl-H358 cells, 167 nM. The corresponding values for `CC[C@@]1(O)C(=O)OCc2c1cc1n(c2=O)Cc2c-1nc1cc3c(cc1c2/C=C/CO)OCO3` [Example A1.13, (S,E)-14-(3-hydroxy-1-propylen-1-yl)-7-ethyl-7-hydroxy-10,13-dihydro-11H-[1,3]dioxolo[4,5-g]pyrano[3′,4′:6,7]indolizino[1,2-b]quinolin-8,11(7H)-dione] are 96.8 nM and 49.2 nM.

With `CC[C@@]1(O)C(=O)OCc2c1cc1n(c2=O)Cc2c-1nc1cc(F)c(C)cc1c2/C=C/CO` [Example A1.14, (S,E)-4-ethyl-8-fluoro-4-hydroxy-11-(3-hydroxy-1-propylen-1-yl)-9-methyl-1,12-dihydro-14H-pyrano[3′,4′:6,7]indolizino[1,2-b]quinolin--3,14(4H)-dione], the figures for the EC50 with HT29 cells and with NCl-H358 cells were 156 nM and 123 nM, respectively.

One may read the EC50 as the midpoint of the concentration-response curve.
